# Experimental data reported in publication PMC9841532, “Exploring the Effect of Halogenation in a Series of Potent and Selective A2B Adenosine Receptor Antagonists” (Journal of Medicinal Chemistry, 2022).
# Molecular target: T1, hA1AR (Homo sapiens, UniProt P30542)
# T1 sequence (P30542 1-326): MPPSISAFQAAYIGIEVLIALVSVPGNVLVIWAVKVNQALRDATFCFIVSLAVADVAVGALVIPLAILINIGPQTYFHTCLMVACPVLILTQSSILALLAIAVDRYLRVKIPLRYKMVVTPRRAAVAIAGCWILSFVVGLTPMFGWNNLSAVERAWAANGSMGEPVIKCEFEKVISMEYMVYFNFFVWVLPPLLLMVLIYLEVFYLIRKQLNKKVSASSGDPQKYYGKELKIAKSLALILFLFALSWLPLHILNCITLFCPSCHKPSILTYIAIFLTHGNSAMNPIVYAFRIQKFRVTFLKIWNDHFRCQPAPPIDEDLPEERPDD
# Test: Radioligand binding competition, [3H]DPCPX, membranes from CHO-A1 cells
# Settings: 1 μM, [3H]DPCPX, human CHO cells, n = 2
# Summary of the method: (§1)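 Racemates, plus selected enantiomers after chiral resolution, were tested at 25 °C, with a 60 min incubation for one subtype and 30 min for others. Non-specific binding was defined with 10 μM or 100 μM R-PIA. Bound radioactivity was counted after washing and filtration.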
row,% at 1 μM hA1 (percentage displacement of specific binding),SMILES
1,13%,CC1=C(C(=O)OC(C)C)C(c2ccco2)n2c(nc3cc(F)c(F)cc32)N1 (centres unmarked) [14b]
2,7%,CC1=C(C(=O)OC(C)C)[C@H](c2ccco2)n2c(nc3cc(Cl)ccc32)N1 [(R)-16j]
3,37%,CC1=C(C(=O)OC(C)C)[C@@H](c2ccoc2)n2c(nc3cc(Cl)ccc32)N1 [(R)-16l]
4,12%,CC1=C(C(=O)OC(C)C)[C@H](c2ccco2)n2c(nc3cc(Br)ccc32)N1 [(R)-16r]
5,9%,CCOC(=O)C1=C(C)Nc2nc3cc(Cl)ccc3n2[C@H]1c1cocn1 [(R)-18c]

# System: not listed separately
# Test: Solubility determination (nephelometry)
# Format: physicochemical
# Settings: 1:99 DMSO/PSB buffer, PBS pH 7, 37 °C
# Method: The solubility of selected compounds was evaluated by following a previously described method.[31] A 10 mM stock solution of the compound was serially diluted in 100% DMSO, and 2.5 μL of this solution was added to a 384-well UV-transparent plate (Greiner) containing 47.5 μL of PBS (pH = 7). The plate was incubated at 37 °C for 4 h, and the light scattering was measured in a NEPHELOstar Plus reader (BMG LABTECH). The data was fitted to a segmented linear regression for measuring the compound solubility.
row,solubility at 4 h,SMILES
1,62 µM,CC1=C(C(=O)OC(C)C)C(c2ccco2)n2c(nc3cc(F)c(F)cc32)N1 (centres unmarked) [14b]

# Molecular target: T2, hA3AR (Homo sapiens, UniProt P0DMS8)
# T2 construct: expressed in transfected cells; host or cells: HeLa (HeLa-A3) cell membranes
# T2 sequence (P0DMS8 1-318): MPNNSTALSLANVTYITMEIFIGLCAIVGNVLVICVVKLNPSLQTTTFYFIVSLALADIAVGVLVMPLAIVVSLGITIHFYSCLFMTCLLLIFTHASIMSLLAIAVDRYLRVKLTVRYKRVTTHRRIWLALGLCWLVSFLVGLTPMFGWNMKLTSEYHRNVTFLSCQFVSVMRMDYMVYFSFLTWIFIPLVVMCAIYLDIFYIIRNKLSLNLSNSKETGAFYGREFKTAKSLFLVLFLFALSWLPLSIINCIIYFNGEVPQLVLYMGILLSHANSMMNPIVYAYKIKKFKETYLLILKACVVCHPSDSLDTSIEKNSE
# Test: Radioligand binding competition, [3H]NECA, membranes from HeLa-A3 cells
# Settings: 1 μM, [3H]NECA, human HeLa cells, n = 2
# Summary of the method: as §1
row,% at 1 μM hA3 (percentage displacement of specific binding),SMILES
1,14%,CC1=C(C(=O)OC(C)C)C(c2ccco2)n2c(nc3cc(F)c(F)cc32)N1 (centres unmarked) [14b]
2,5%,CC1=C(C(=O)OC(C)C)[C@H](c2ccco2)n2c(nc3cc(Cl)ccc32)N1 [(R)-16j]
3,24%,CC1=C(C(=O)OC(C)C)[C@@H](c2ccoc2)n2c(nc3cc(Cl)ccc32)N1 [(R)-16l]
4,2%,CC1=C(C(=O)OC(C)C)[C@H](c2ccco2)n2c(nc3cc(Br)ccc32)N1 [(R)-16r]
5,15%,CCOC(=O)C1=C(C)Nc2nc3cc(Cl)ccc3n2[C@H]1c1cocn1 [(R)-18c]

# Molecular target: T3, CYP3A4 (Homo sapiens, UniProt P08684)
# T3 construct: host or cells: insect cell microsomes
# Test: CYP3A4 inhibition (fluorescence, substrates DBF or 7-BFC)
# Format: biochemical
# Settings: 10 μM, substrate 7-benzyloxy-4-trifluoromethyl-coumarin
# Method: To identify potential metabolic liabilities within the series here documented, the selected A2BAR antagonists were tested in vitro for CYP3A4 inhibitory activity.
# The inhibitory activity of selected compounds was evaluated by following a previously described method.[31] […] The plate was then pre-incubated at 37 °C for 5 min and the reaction initiated by the addition of a pre-warmed enzyme/substrate (E/S) mix. The E/S mix contained buffer (KH2PO4), c-DNA-expressed P450 in insect cell microsomes, substrate (DBF: dibenzylfluorescein or 7-BFC: 7-benzyloxy-4-trifluoromethyl-coumarin) and other components to give the final assay concentrations in a reaction volume of 200 μL. Reactions were terminated after various times (a specific time for each cytochrome) by addition of STOP solution (ACN/Tris–HCl 0.5 M 80:20, and NaOH 2 N for CYP3A4). Fluorescence per well was measured using a fluorescence plate reader (Tecan Infinite M1000 PRO), and percentage of inhibition was calculated. In silico predictions were performed using free web-based models (FAME 3, SmartCYP, and Xenosite).[62]−[64]
# T3 sequence (P08684 whole entry): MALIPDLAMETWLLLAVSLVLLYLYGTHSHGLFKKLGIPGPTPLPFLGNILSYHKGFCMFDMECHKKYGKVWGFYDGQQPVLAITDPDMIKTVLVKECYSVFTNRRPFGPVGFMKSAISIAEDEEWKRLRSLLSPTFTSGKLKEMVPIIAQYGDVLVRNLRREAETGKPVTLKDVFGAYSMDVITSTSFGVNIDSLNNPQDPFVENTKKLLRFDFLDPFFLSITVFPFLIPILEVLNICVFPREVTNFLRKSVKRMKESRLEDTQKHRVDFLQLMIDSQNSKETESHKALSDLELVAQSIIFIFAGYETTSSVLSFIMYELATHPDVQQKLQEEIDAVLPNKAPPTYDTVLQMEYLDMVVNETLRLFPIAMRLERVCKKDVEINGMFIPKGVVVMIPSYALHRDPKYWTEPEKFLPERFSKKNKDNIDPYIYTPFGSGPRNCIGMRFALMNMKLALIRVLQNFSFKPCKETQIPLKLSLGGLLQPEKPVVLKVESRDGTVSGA
row,"CYP3A4 % inh. at 10 μM, 7-BFC",SMILES
1,58%,CC1=C(C(=O)OC(C)C)C(c2ccco2)n2c(nc3cc(F)c(F)cc32)N1 (centres unmarked) [14b]

# Same assay, conditions: 10 μM, substrate dibenzylfluorescein
row,"CYP3A4 % inh. at 10 μM, DBF",SMILES
1,39%,CC1=C(C(=O)OC(C)C)C(c2ccco2)n2c(nc3cc(F)c(F)cc32)N1 (centres unmarked) [14b]

# Molecular target: T4, hA2BAR (Homo sapiens, UniProt P29275)
# T4 construct: host or cells: HEK-293 (HEK-293-A2B) cell membranes
# T4 sequence (P29275 1-332): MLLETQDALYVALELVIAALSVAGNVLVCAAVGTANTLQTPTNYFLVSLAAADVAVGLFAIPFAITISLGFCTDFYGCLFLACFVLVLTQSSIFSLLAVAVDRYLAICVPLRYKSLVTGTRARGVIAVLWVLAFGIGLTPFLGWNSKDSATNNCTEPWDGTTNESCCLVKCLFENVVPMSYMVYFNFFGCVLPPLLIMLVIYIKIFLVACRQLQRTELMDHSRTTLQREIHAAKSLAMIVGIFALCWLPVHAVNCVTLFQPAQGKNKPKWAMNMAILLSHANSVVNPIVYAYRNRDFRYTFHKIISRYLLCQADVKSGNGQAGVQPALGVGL
# Test: Radioligand binding competition, [3H]DPCPX, membranes from HEK-293-A2B cells
# Settings: 1 μM, [3H]DPCPX, human HEK-293 cells, n = 2
# Summary of the method: as §1
row,% at 1 μM hA2B (percentage displacement of specific binding),SMILES
1,51%,CC1=C(C(=O)OC(C)C)[C@H](c2ccco2)n2c(nc3cc(Cl)ccc32)N1 [(R)-16j]
2,35%,CC1=C(C(=O)OC(C)C)[C@H](c2ccco2)n2c(nc3cc(Br)ccc32)N1 [(R)-16r]
3,26%,CCOC(=O)C1=C(C)Nc2nc3cc(Cl)ccc3n2[C@H]1c1cocn1 [(R)-18c]

# Same assay, conditions: displacement of specific [3H]DPCPX binding in human HEK-293 cells, n = 3; read-out: Ki hA2B
row,Ki,SMILES
1,11.9 ± 1.1 nM,CC1=C(C(=O)OC(C)C)C(c2ccco2)n2c(nc3cc(F)c(F)cc32)N1 (centres unmarked) [14b]
2,2.6 ± 0.3 nM,CC1=C(C(=O)OC(C)C)[C@@H](c2ccoc2)n2c(nc3cc(Cl)ccc32)N1 [(R)-16l]

# System: not listed separately
# Test: Human microsomal stability
# Format: in vitro ADME
# Settings: human microsomes, sampling time 60 min
# Method: The human microsomal stability of selected compounds was evaluated by following a previously described method.[31] The human microsomes employed were purchased from Tebu-Xenotech. The compound was incubated with the microsomes at 37 °C in a 50 mM phosphate buffer (pH = 7.4) containing 3 mM MgCl2, 1 mM NADP, 10 mM glucose-6-phosphate, and 1 U/mL glucose-6-phosphate-dehydrogenase. Samples (75 μL) were taken from each well at 0, 10, 20, 40, and 60 min and transferred to a plate containing 4 °C 75 μL acetonitrile and 30 μL of 0.5% formic acid in water was added for improving the chromatographic conditions. The plate was centrifuged (46,000 g, 30 min), and supernatants were taken and analyzed in a UPLC-MS/MS (Xevo TQD, Waters) by employing a BEH C18 column and an isocratic gradient of 0.1% formic acid in water:0.1% formic acid acetonitrile (60:40). The metabolic stability of the compounds was calculated from the logarithm of the remaining compounds at each of the time point studied.
row,microsomal stability percent (percentage remanent),SMILES
1,20.97%,CC1=C(C(=O)OC(C)C)C(c2ccco2)n2c(nc3cc(F)c(F)cc32)N1 (centres unmarked) [14b]

# Same assay, conditions: human, human microsomes, pH 7.4; read-out: microsomal stability Clint (intrinsic clearance)
row,microsomal CLint at 1 h,SMILES
1,21.6 µL/min/mg,CC1=C(C(=O)OC(C)C)C(c2ccco2)n2c(nc3cc(F)c(F)cc32)N1 (centres unmarked) [14b]

# Same assay, conditions: human, human microsomes, pH 7.4; read-out: microsomal stability t1/2
row,half-life at 1 h,SMILES
1,28.9 min,CC1=C(C(=O)OC(C)C)C(c2ccco2)n2c(nc3cc(F)c(F)cc32)N1 (centres unmarked) [14b]

# Molecular target: T5, hA2AAR (Homo sapiens, UniProt P29274)
# T5 construct: expressed in transfected cells; host or cells: HeLa (HeLa-A2A) cell membranes
# Test: Radioligand binding competition, [3H]ZM241385, membranes from HeLa-A2A cells
# Settings: 1 μM, [3H]ZM241385, human HeLa cells, n = 2
# Summary of the method: as §1
# T5 sequence (P29274 whole entry): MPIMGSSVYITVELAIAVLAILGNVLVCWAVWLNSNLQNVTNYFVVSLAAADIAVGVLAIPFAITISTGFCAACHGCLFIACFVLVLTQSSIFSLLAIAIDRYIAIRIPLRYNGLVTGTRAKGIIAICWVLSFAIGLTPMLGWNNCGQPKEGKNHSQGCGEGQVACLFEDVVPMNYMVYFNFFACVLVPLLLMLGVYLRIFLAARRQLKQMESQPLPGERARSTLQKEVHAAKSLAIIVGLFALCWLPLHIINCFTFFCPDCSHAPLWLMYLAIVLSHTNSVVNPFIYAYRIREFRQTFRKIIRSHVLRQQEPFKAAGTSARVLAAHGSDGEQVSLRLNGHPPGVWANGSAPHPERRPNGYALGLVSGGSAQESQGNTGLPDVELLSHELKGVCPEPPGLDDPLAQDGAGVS
row,% at 1 μM hA2A (percentage displacement of specific binding),SMILES
1,22%,CC1=C(C(=O)OC(C)C)C(c2ccco2)n2c(nc3cc(F)c(F)cc32)N1 (centres unmarked) [14b]
2,37%,CC1=C(C(=O)OC(C)C)[C@H](c2ccco2)n2c(nc3cc(Cl)ccc32)N1 [(R)-16j]
3,7%,CC1=C(C(=O)OC(C)C)[C@H](c2ccco2)n2c(nc3cc(Br)ccc32)N1 [(R)-16r]
4,32%,CCOC(=O)C1=C(C)Nc2nc3cc(Cl)ccc3n2[C@H]1c1cocn1 [(R)-18c]

# Same assay, conditions: displacement of specific [3H]ZM241385 binding in human HeLa cells, n = 3; read-out: Ki hA2A
row,Ki,SMILES
1,96.3 ± 6 nM,CC1=C(C(=O)OC(C)C)[C@@H](c2ccoc2)n2c(nc3cc(Cl)ccc32)N1 [(R)-16l]
